The results in this text go back to publication PMC6403271, “Characterization, mechanism of action and optimization of activity of a novel peptide-peptoid hybrid against bacterial pathogens involved in canine skin infections” (Scientific Reports, 2019).

The subject of assay [1] is E. coli, 30235. The class given is cell-based, Escherichia coli. As to conditions: 30235, 18 h. From the text: (§1) For antibacterial spectrum the following strains were used: Corynebacterium auriscanis, 31551, (54 C6, dog, ear, 2013); Enterococcus faecalis, 27404, (17 C7, dog, wound, 2011); Enterococcus faecium, 30951, (24 C1, dog, ear, 2013); Streptococcus canis, 26740-1, (14 H1, dog, ear, 2010); Staphylococcus aureus, 27266, (16 G9, dog, skin, 2010); Staphylococcus aureus, 27266, (16 G9, dog, skin, 2010); Staphylococcus pseudintermedius 22963, (3 B9, dog, 2007). Acinetobacter baumannii, 27065, (16 D1, dog, wound, 2010); E. coli, 30235, 23 A6, dog, wound, 2012; Klebsiella pneumoniae, 26233, (11 H5, dog, wound, 2010); Pasteurella canis, 31096, (24 C8, dog, skin, 2013); Proteus mirabilis, 25178, (9 A4, dog, ear, 2009); Pseudomonas aeruginosa 26314, 12 C5, dog, urine, 2010). MIC determination was performed by broth microdilution according to the Clinical and Laboratory Standard Institute (CLSI, […]-A3, 2008)[62]. In brief, each bacterial strain was diluted to concentration of 5 × 10^5 CFU/mL in Mueller Hinton broth II (MHB II) media (Oxoid) and added to a two-fold serial dilution of peptides and peptide-peptoid hybrids concentrations ranging from 1 to 64 μg/ml in 96-well plates (Nunc Internationals, Rochester, NY). The MICs were determined as a lowest concentration showing no visible growth after incubation for 18 hours at 37 °C. Experiments were performed in triplicates on two different days.

In assay [2] the test system is Streptococcus canis, 26740-1. The class given is cell-based. The settings on record: 18 h.
Text: as §1

The test system of assay [3] is Corynebacterium auriscanis, 31551. Type of assay: cell-based. As to conditions: 18 h.
Text: as §1

Assay [4] has as its system Proteus mirabilis, 25178. Type of assay: cell-based. The settings on record: 25178, 18 h.
Text: as §1

In assay [5] the test system is Enterococcus faecium, 30951. Type of assay: cell-based. As to conditions: 30951, 18 h.
Text: as §1

Assay [6] concerns Enterococcus faecalis, 27404. Type of assay: cell-based. The settings on record: 27404, 18 h.
Text: as §1

Assay [7] relates to Klebsiella pneumoniae, 26233. Type of assay: cell-based. As to conditions: 26233, 18 h.
Text: as §1

For assay [8], the system named is Acinetobacter baumannii, 27065. The class given is cell-based. As to conditions: 27065, 18 h.
Text: as §1

Assay [9] relates to Pasteurella canis, 31096. The class given is cell-based.
Text: as §1

Assay [10] has as its system S. pseudintermedius strains. Type of assay: cell-based, Staphylococcus pseudintermedius. As to conditions: for MIC S. pseudintermedius strain 26071 / MIC S. pseudintermedius strain 26092-2 / MIC S. pseudintermedius strain 26959 / MIC S. pseudintermedius strain 27364 / MIC S. pseudintermedius strain 27382 / MIC S. pseudintermedius strain 31524 / MIC S. pseudintermedius strain 33228 / MIC S. pseudintermedius strain 35890 / MIC S. pseudintermedius strain 37526-1 / MIC S. pseudintermedius strain 37535-1 / MIC S. pseudintermedius strain 38637: 18 h. How it is done: Activity of B1 was tested on 50P. aeruginosa isolates and 57S. pseudintermedius isolates (including 7 MRSP) that had been isolated in the diagnostic laboratory Sund Vet Diagnostik (University of Copenhagen) from various infections in dogs between 2009 and 2011. Representative MRSP (C22963), MSSA, and P. aeruginosa (26314) were used for testing the first set of B1 analogues.
For testing the selectivity of 23 and 26 against clinical isolates of S. pseudintermedius vs S. aureus the following strains were used.
MIC determination was performed by broth microdilution according to the Clinical and Laboratory Standard Institute (CLSI, M31-A3, 2008)[62]. In brief, each bacterial strain was diluted to concentration of 5 × 10^5 CFU/mL in Mueller Hinton broth II (MHB II) media (Oxoid) and added to a two-fold serial dilution of peptides and peptide-peptoid hybrids concentrations ranging from 1 to 64 µg/ml in 96-well plates (Nunc Internationals, Rochester, NY). The MICs were determined as a lowest concentration showing no visible growth after incubation for 18 hours at 37 °C. Experiments were performed in triplicates on two different days.

Assay [11] has as its system MRSP C22963. The class given is cell-based, Staphylococcus pseudintermedius. The method, boiled down:
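Broth microdilution per CLSI M31-A3 on canine clinical isolates plus reference MRSP C22963, MSSA and P. aeruginosa 26314; 5 × 10^5 CFU/mL in MHB II with two-fold dilutions from 1 to 64 µg/ml. MIC = lowest concentration without visible growth after 18 hours at 37 °C; triplicates on two days.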

Assay [12] deals with P. aeruginosa (26314). The class given is cell-based, Pseudomonas aeruginosa. The essentials: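 Canine clinical isolate P. aeruginosa 26314 tested by CLSI broth microdilution at 5 × 10^5 CFU/mL in Mueller Hinton broth II against 2-fold peptide dilutions of 1-64 μg/ml. MIC = lowest concentration without visible growth after 18 h at 37 °C; triplicates on two days.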

≈ marks a conversion by molar mass, not a printed value. Like-named read-outs stand apart in the source and are kept apart here. Marks after values point to notes of the source that are not given here. Square brackets hold non-standard residues; d marks the D form. Peptide text beside a SMILES is read from it. N(1-naphthylmethyl)Gly = O=C(O)CNCc1cccc2ccccc12; 2Nal = N[C@@H](Cc1ccc2ccccc2c1)C(=O)O; d1Nal = N[C@H](Cc1cccc2ccccc12)C(=O)O; N(4-MeBn)Gly = Cc1ccc(CNCC(=O)O)cc1; dNle = CCCC[C@@H](N)C(=O)O; Nle = CCCC[C@H](N)C(=O)O; NBuGly = CCCCNCC(=O)O Where only a bound is given, the exact number is not on record here.

In the case of `CCCC[C@H](NC(=O)[C@H](CCCCN)NC(=O)[C@H](CCCCN)NC(=O)[C@@H](N)CCCCN)C(=O)N[C@@H](Cc1ccc2ccccc2c1)C(=O)N[C@@H](Cc1ccccc1)C(=O)N[C@@H](Cc1ccc2ccccc2c1)C(N)=O` [Compound 23, Lys-Lys-Lys-Nle-(2-Nal)Ala-Phe-(2-Nal)Ala] (H-KKK[Nle][2Nal]F[2Nal]-NH2), in [1], the “MIC E. coli” value is 32 µg/mL (≈ 30.3 µM). Besides, the “MIC Streptococcus canis” value in assay [2] is 16 µg/mL (≈ 15.1 µM). In addition, the “MIC Corynebacterium auriscanis” value in [3] came out at 8 µg/mL (≈ 7.57 µM). Also, the “MIC Proteus mirabilis” value in [4] is on record as over 64 µg/mL. Besides, the “MIC Enterococcus faecium” value in assay [5] is 64 µg/mL (≈ 60.6 µM). In addition, the “MIC Enterococcus faecalis” value in assay [6] is over 64 µg/mL. In addition, in assay [7], the “MIC Klebsiella pneumoniae” value is recorded as over 64 µg/mL. In addition, the “MIC Acinetobacter baumannii” value in assay [8] was determined as 64 µg/mL (≈ 60.6 µM). Also, the “MIC Pasteurella canis” value in assay [9] (31096, 24 C8, dog, skin, 2013) is reported as over 64 µg/mL. In assay [10], the “MIC S. pseudintermedius strain 26071” value is recorded as 8 µg/mL (≈ 7.57 µM), the “MIC S. pseudintermedius strain 26092-2” value is recorded as 8 µg/mL (≈ 7.57 µM), the “MIC S. pseudintermedius strain 26959” value is given as 4 µg/mL (≈ 3.79 µM) and the “MIC S. pseudintermedius strain 27364” value was 2 µg/mL (≈ 1.89 µM). Moreover, in assay [10], the “MIC S. pseudintermedius strain 27382” value came out at 4 µg/mL (≈ 3.79 µM), the “MIC S. pseudintermedius strain 31524” value amounted to 8 µg/mL (≈ 7.57 µM), the “MIC S. pseudintermedius strain 33228” value is recorded as 2 µg/mL (≈ 1.89 µM) and the “MIC S. pseudintermedius strain 35890” value is 2 µg/mL (≈ 1.89 µM). Moreover, in assay [10], the “MIC S. pseudintermedius strain 37526-1” value lay within 1 to 2 µg/mL, the “MIC S. pseudintermedius strain 37535-1” value is listed as 16 µg/mL (≈ 15.1 µM) and the “MIC S. pseudintermedius strain 38637” value is listed as 16 µg/mL (≈ 15.1 µM). In addition, in [11] (18 h), the “MIC Staphylococcus pseudintermedius” value is reported as 4 µg/mL (≈ 3.79 µM) and the “Minimum Inhibitory Concentration MRSP C22963” value lay within 2 to 4 µg/mL. Moreover, in [12] (Table 1), the “Minimum Inhibitory Concentration P. aeruginosa (26314)” value stood at 8 µg/mL.
On to `CCCC[C@@H](NC(=O)[C@H](CCCCN)NC(=O)[C@H](CCCCN)NC(=O)[C@@H](N)CCCCN)C(=O)N[C@H](Cc1cccc2ccccc12)C(=O)N[C@H](Cc1ccccc1)C(=O)N[C@H](Cc1cccc2ccccc12)C(N)=O` [Compound 26, Lys-Lys-Lys-nle-(1-Nal)ala-phe-(1-Nal)ala] (H-KKK[dNle][d1Nal][dF][d1Nal]-NH2; N-terminus assumed), for which the “MIC E. coli” value in assay [1] is 32 µg/mL (≈ 30.3 µM). In [2], the “MIC Streptococcus canis” value was over 64 µg/mL. The “MIC Corynebacterium auriscanis” value in assay [3] is 32 µg/mL (≈ 30.3 µM). Also, the “MIC Proteus mirabilis” value in assay [4] was over 64 µg/mL. Also, in [5], the “MIC Enterococcus faecium” value is given as over 64 µg/mL. Moreover, the “MIC Enterococcus faecalis” value in assay [6] is reported as 64 µg/mL (≈ 60.6 µM). Besides, in [7], the “MIC Klebsiella pneumoniae” value was over 64 µg/mL. For the same compound, the “MIC Acinetobacter baumannii” value in [8] is reported as over 64 µg/mL. Moreover, in [9] (31096, 24 C8, dog, skin, 2013), the “MIC Pasteurella canis” value was over 64 µg/mL. In addition, in assay [10], the “MIC S. pseudintermedius strain 26071” value turned out to be 4 µg/mL (≈ 3.79 µM), the “MIC S. pseudintermedius strain 26092-2” value came to 4 µg/mL (≈ 3.79 µM), the “MIC S. pseudintermedius strain 26959” value is listed as 4 µg/mL (≈ 3.79 µM) and the “MIC S. pseudintermedius strain 27364” value amounted to 2 µg/mL (≈ 1.89 µM). In assay [10], the “MIC S. pseudintermedius strain 27382” value was found to be 2 µg/mL (≈ 1.89 µM), the “MIC S. pseudintermedius strain 31524” value was determined as 32 µg/mL (≈ 30.3 µM), the “MIC S. pseudintermedius strain 33228” value is reported as 2 µg/mL (≈ 1.89 µM) and the “MIC S. pseudintermedius strain 35890” value was found to be 4 µg/mL (≈ 3.79 µM). Also, in assay [10], the “MIC S. pseudintermedius strain 37526-1” value was determined as 4 µg/mL (≈ 3.79 µM), the “MIC S. pseudintermedius strain 37535-1” value is reported as 16 µg/mL (≈ 15.1 µM) and the “MIC S. pseudintermedius strain 38637” value came out at 8 µg/mL (≈ 7.57 µM). For the same compound, in assay [11] (18 h), the “MIC Staphylococcus pseudintermedius” value worked out at 4 µg/mL (≈ 3.79 µM). Moreover, in assay [11] (Table 1), the “Minimum Inhibitory Concentration MRSP C22963” value lay in the range of 4 to 8 µg/mL. For the same compound, the “Minimum Inhibitory Concentration P. aeruginosa (26314)” value in assay [12] (Table 1) stood at 8 µg/mL.
On to `CCCCN(CC(=O)N[C@@H](CCCCN)C(=O)N(CC(=O)N(CC(=O)N(CC(N)=O)Cc1cccc2ccccc12)Cc1ccc(C)cc1)Cc1cccc2ccccc12)C(=O)[C@H](CCCCN)NC(=O)[C@@H](N)CCCCN` [B1, Lys-Lys-(NBu)Gly-Lys-(N1-Nal)Gly-(N4-MeBn)Gly-(N1-Nal)Gly] (H-KK[NBuGly]K[N(1-naphthylmethyl)Gly][N(4-MeBn)Gly][N(1-naphthylmethyl)Gly]-NH2), for which the “MIC E. coli” value in assay [1] stood at 64 µg/mL (≈ 59.8 µM). In addition, in assay [2], the “MIC Streptococcus canis” value is 4 µg/mL (≈ 3.74 µM). Moreover, the “MIC Corynebacterium auriscanis” value in assay [3] was found to be 4 µg/mL (≈ 3.74 µM). In addition, the “MIC Proteus mirabilis” value in assay [4] is over 64 µg/mL. Also, the “MIC Enterococcus faecium” value in assay [5] is 16 µg/mL (≈ 14.9 µM). Also, in [6], the “MIC Enterococcus faecalis” value was determined as 64 µg/mL (≈ 59.8 µM). For the same compound, in assay [7], the “MIC Klebsiella pneumoniae” value is listed as over 64 µg/mL. Moreover, the “MIC Acinetobacter baumannii” value in [8] turned out to be 64 µg/mL (≈ 59.8 µM). For the same compound, the “MIC Pasteurella canis” value in assay [9] (18 h) was determined as 8 µg/mL (≈ 7.47 µM). Also, the “MICs against a panel of 57 S. pseudintermedius isolates from canine infections” value in assay [10] (irrespective of methicillin resistance (7 MRSP, 50 MSSP)) was in the range of 2 to 4 µg/mL. Also, the “MIC Staphylococcus pseudintermedius” value in assay [11] (18 h) came out at 2 µg/mL (≈ 1.87 µM). For the same compound, the “Minimum Inhibitory Concentration MRSP C22963” value in assay [11] (Table 1) is on record as 2–4^b µg/ml. Moreover, the “Minimum Inhibitory Concentration P. aeruginosa (26314)” value in assay [12] (26314, 18 h) is 8 to 16 µg/mL.
